{
  "source": "paper PMC4710668",
  "about": "“Bioactivation of food genotoxicants 5-hydroxymethylfurfural and furfuryl alcohol by sulfotransferases from human, mouse and rat: a comparative study” (Archives of Toxicology, 2014)",
  "key": {"[1]": {"design": "method as in Glatt et al. [2012]", "details": "in water at 37 °C; ref Glatt et al. [2012]; cited from earlier work"}, "hSULT1A1": {"target": "T1, hSULT1A1 (Homo sapiens, UniProt P50225)", "T1 construct": "made in house; host or cells: Salmonella typhimurium TA1538 (cytosolic fraction, not purified)", "T1 sequence (P50225 whole entry)": "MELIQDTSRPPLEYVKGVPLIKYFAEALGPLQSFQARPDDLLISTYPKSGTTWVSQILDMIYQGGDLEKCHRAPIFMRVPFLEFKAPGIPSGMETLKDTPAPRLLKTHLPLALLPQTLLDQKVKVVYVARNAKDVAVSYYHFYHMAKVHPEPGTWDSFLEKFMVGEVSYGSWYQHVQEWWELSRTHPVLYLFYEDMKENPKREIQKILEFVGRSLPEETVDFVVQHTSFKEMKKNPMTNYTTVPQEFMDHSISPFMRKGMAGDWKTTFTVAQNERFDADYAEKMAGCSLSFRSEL", "details": "cited from earlier work; for K M of sulfoconjugation: ref Honma et al. [2001]"}, "[2]": {"design": "method as in Monien et al. [2009]", "details": "ref Monien et al. [2009], cited from earlier work"}, "[3]": {"experiment": "Stability of SMF in solution", "format": "physicochemical", "details": "solutions containing 75 % 2-propanol at 4 °C, within four weeks", "method": "The analytical technique used in this study was adapted from the SMF quantification in plasma samples of HMF-treated mice (Monien et al. [2009]). This is beset with two potential sources of inaccuracy. […] Here, we chose a reaction time of 30 min. […] SMF was analyzed by UPLC-MS/MS in the MRM mode using the specific fragmentation reactions of the sulfate ion radical (m/z = 204.9 → 96.0) and the protonated sulfonate ion (m/z = 204.9 → 81.0) (Monien et al. [2009]). Representative chromatograms are shown in Fig. S2 of the Supplementary Material. The SMF levels resulting from HMF sulfoconjugation were quantified using SMF solutions at various concentrations as external calibration line prepared in water/2-propanol (1:3), which represents the solvent composition in the incubation mixture following instant stopping and precipitating of proteins. The second source of imprecision of mass spectrometric SMF quantification with an external calibration is the possible ion suppression by residues from bacterial cytosol or buffer salts in the samples. This was tested in a separate experiment measuring the peak areas of six series of solutions with five different SMF concentrations, either prepared with water or with the contents of the incubation mixture including 1 mg/ml protein from a cytosolic preparation of native S. typhimurium TA1538."}},
  "note": "Read-outs that look alike come from different tables or passages of the source.",
  "data": [
    {"smiles": "O=S(=O)(O)OCc1ccco1", "note": "[2-sulfoxymethylfuran]", "values": [
      {"measurement": "t 1/2", "setting": "[1]", "value": 20, "unit": "s"}
    ]},
    {"smiles": "COc1cc2c(CCNC(C)=O)c[nH]c2cc1O", "note": "[6-hydroxymelatonin]", "values": [
      {"measurement": "K M of sulfoconjugation", "setting": "hSULT1A1", "value": 18, "unit": "µM"}
    ]},
    {"smiles": "O=Cc1ccc(COS(=O)(=O)O)o1", "note": "[SMF, 5-sulfoxymethylfurfural]", "values": [
      {"measurement": "half-life", "setting": "[2]; in plasma at 37 °C", "value": 1.8, "unit": "h"},
      {"measurement": "half-life", "setting": "[2]; in urine at 37 °C", "value": 2.1, "unit": "h"},
      {"measurement": "half-life", "setting": "[2]; in water at 37 °C", "value": 1.9, "unit": "h"},
      {"measurement": "stability", "setting": "[3]", "value": "without any detectable degradation"}
    ]},
    {"smiles": "NCCc1ccc(O)c(O)c1", "note": "[dopamine]", "values": [
      {"measurement": "K M of sulfoconjugation", "setting": "hSULT1A1", "value": 130, "unit": "µM"}
    ]},
    {"smiles": "O=[N+]([O-])c1ccc(O)cc1", "note": "[p-nitrophenol]", "values": [
      {"measurement": "K M of sulfoconjugation", "setting": "hSULT1A1", "value": 3.0, "unit": "µM"}
    ]},
    {"smiles": "CC(=O)Nc1ccc(O)cc1", "note": "[paracetamol]", "values": [
      {"measurement": "K M of turnover", "setting": "hSULT1A1; ref Adjei et al. [2008]", "value": 2400, "unit": "µM"}
    ]}
  ]
}
